From ChEMBL document CHEMBL2074307, “Characterization of drug transport by the human multidrug resistance protein 3 (ABCC3)” (J Biol Chem, 2001)

Experiments:
[1] = molecular target: Multidrug resistance associated protein (Homo sapiens) (UniProt Q96QA9); experiment: (§1) TP_TRANSPORTER: uptake in membrane vesicle from MRP3-expressing Sf9 cells; format: functional, cell membranes
[2] = molecular target: Multidrug resistance associated protein (Homo sapiens) (UniProt Q96QA9); experiment: TP_TRANSPORTER: efflux in MRP3-expressing fibroblast from kidney of mdr1a/1b and mrp1 (-/-) mouse; format: functional, cell-based; conditions: mdr1a/1b (-/-) and mrp1 (-/-) fibroblasts
[3] = molecular target: Multidrug resistance associated protein (Homo sapiens) (UniProt Q96QA9); experiment: TP_TRANSPORTER: increase in Etoposide intracellular accumulation (Etoposide: 2 uM, Sulfinpyrazone: 2000 uM) in MRP3-expressing fibroblast from kidney of mdr1a/1b and mrp1 (-/-) mouse; format: functional, cell-based; conditions: mdr1a/1b (-/-) and mrp1 (-/-) fibroblasts
[4] = molecular target: Multidrug resistance associated protein (Homo sapiens) (UniProt Q96QA9); experiment: TP_TRANSPORTER: increase in Etoposide intracellular accumulation (Etoposide: 2 uM, Indomethacin: 500 uM) in MRP3-expressing fibroblast from kidney of mdr1a/1b and mrp1 (-/-) mouse; format: functional, cell-based; conditions: mdr1a/1b (-/-) and mrp1 (-/-) fibroblasts
[5] = substrate: COc1cc([C@@H]2c3cc4c(cc3[C@@H](O[C@@H]3O[C@@H]5CO[C@@H](C)O[C@H]5[C@H](O)[C@H]3O)[C@H]3COC(=O)[C@H]23)OCO4)cc(OC)c1O[C@@H]1O[C@H](C(=O)O)[C@@H](O)[C@H](O)[C@H]1O; experiment: as §1; format: functional, cell membranes
[6] = substrate: C[C@]12CC[C@@H]3c4ccc(O)cc4CC[C@H]3[C@@H]1CC[C@@H]2O[C@@H]1O[C@H](C(=O)O)[C@@H](O)[C@H](O)[C@H]1O; experiment: as §1; format: functional, cell membranes

With `N[C@@H](CCC(=O)N[C@@H](CS)C(=O)NCC(=O)O)C(=O)O` the Activity [1] was “is not a substrate [-]”.

With `COc1cc([C@@H]2c3cc4c(cc3[C@@H](O[C@@H]3O[C@@H]5CO[C@@H](C)O[C@H]5[C@H](O)[C@H]3O)[C@H]3COC(=O)[C@H]23)OCO4)cc(OC)c1O` the Activity [2] was “substrate [+]”.

In the case of `O=C1C(CC[S+]([O-])c2ccccc2)C(=O)N(c2ccccc2)N1c1ccccc1` (stereo unspecified), the Activity [3] is reported as “inhibitor [18 -> 83 % of control (clone#38), 30 -> 77 % of control (clone#77)]”.

`COc1ccc2c(c1)c(CC(=O)O)c(C)n2C(=O)c1ccc(Cl)cc1` was tested, and the Activity [4] was “inhibitor [[…] -> […] % of control (clone#38), 30 -> […] % of control (clone#77)]”.

B1: Multidrug resistance associated protein (Homo sapiens), Q96QA9 (protein)
chain: MDALCGSGELGSKFWDSNLSVHTENPDLTPCFQNSLLAWVPCIYLWVALPCYLLYLRHHCRGYIILSHLSKLKMVLGVLLWCVSWADLFYSFHGLVHGRAPAPVFFVTPLVVGVTMLLATLLIQYERLQGVQSSGVLIIFWFLCVVCAIVPFRSKILLAKAEGEISDPFRFTTFYIHFALVLSALILACFREKPPFFSAKNVDPNPYPETSAGFLSRLFFWWFTKMAIYGYRHPLEEKDLWSLKEEDRSQMVVQQLLEAWRKQEKQTARHKASAAPGKNASGEDEVLLGARPRPRKPSFLKALLATFGSSFLISACFKLIQDLLSFINPQLLSILIRFISNPMAPSWWGFLVAGLMFLCSMMQSLILQHYYHYIFVTGVKFRTGIMGVIYRKALVITNSVKRASTVGEIVNLMSVDAQRFMDLAPFLNLLWSAPLQIILAIYFLWQNLGPSVLAGVAFMVLLIPLNGAVAVKMRAFQVKQMKLKDSRIKLMSEILNGIKVLKLYAWEPSFLKQVEGIRQGELQLLRTAAYLHTTTTFTWMCSPFLVTLITLWVYVYVDPNNVLDAEKAFVSVSLFNILRLPLNMLPQLISNLTQASVSLKRIQQFLSQEELDPQSVERKTISPGYAITIHSGTFTWAQDLPPTLHSLDIQVPKGALVAVVGPVGCGKSSLVSALLGEMEKLEGKVHMKGSVAYVPQQAWIQNCTLQENVLFGKALNPKRYQQTLEACALLADLEMLPGGDQTEIGEKGINLSGGQRQRVSLARAVYSDADIFLLDDPLSAVDSHVAKHIFDHVIGPEGVLAGKTRVLVTHGISFLPQTDFIIVLADGQVSEMGPYPALLQRNGSFANFLCNYAPDEDQGHLEDSWTALEGAEDKEALLIEDTLSNHTDLTDNDPVTYVVQKQFMRQLSALSSDGEGQGRPVPRRHLGPSEKVQVTEAKADGALTQEEKAAIGTVELSVFWDYAKAVGLCTTLAICLLYVGQSAAAIGANVWLSAWTNDAMADSRQNNTSLRLGVYAALGILQGFLVMLAAMAMAAGGIQAARVLHQALLHNKIRSPQSFFDTTPSGRILNCFSKDIYVVDEVLAPVILMLLNSFFNAISTLVVIMASTPLFTVVILPLAVLYTLVQRFYAATSRQLKRLESVSRSPIYSHFSETVTGASVIRAYNRSRDFEIISDTKVDANQRSCYPYIISNRWLSIGVEFVGNCVVLFAALFAVIGRSSLNPGLVGLSVSYSLQVTFALNWMIRMMSDLESNIVAVERVKEYSKTETEAPWVVEGSRPPEGWPPRGEVEFRNYSVRYRPGLDLVLRDLSLHVHGGEKVGIVGRTGAGKSSMTLCLFRILEAAKGEIRIDGLNVADIGDPILFSGTLRMNLDPFGSYSEEDIWWALELSHLHTFVSSQPAGLDFQCSEGGENLSVGQRQLVCLARALLRKSRILVLDEATAAIDLETDNLIQATIRTQFDTCTVLTIAHRLNTIMDYTRVLVLDKGVVAEFDSPANLIAARGIFYGMARDAGLA
B1 showed a Km [5] of 11.4 µM and a Km [6] of 17.7 µM.
